Assay results as given in ChEMBL document CHEMBL1201862, “PubChem BioAssay data set” (2004).
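Exposure lasted 48 hours, with cells grown in 96-well plates and compounds tested at five concentrations. GI50 is the concentration that inhibits growth by half.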 The source made the active and inactive calls. Rule as the data show it: active = GI50 up to about 1.1 µM and inactive = higher.

How the values were obtained:
Test in all cases: NCI-60 cell line screen, 48 h
TK-10 = tested on: TK-10
HL-60 = tested on: HL-60
NCI-H522 = tested on: NCI-H522
SF-539 = tested on: SF-539
OVCAR-3 = tested on: OVCAR-3
A498 = tested on: A498
NCI-H460 = tested on: NCI-H460
Hs-578T = tested on: Hs-578T
UACC-62 = tested on: UACC-62
Malme-3M = tested on: Malme-3M
SW-620 = tested on: SW-620
PC-3 = tested on: PC-3
ACHN = tested on: ACHN
MCF7 = tested on: MCF7
RPMI-8226 = tested on: RPMI-8226
CAKI-1 = tested on: CAKI-1
M14 = tested on: M14
SK-MEL-2 = tested on: SK-MEL-2
OVCAR-4 = tested on: OVCAR-4

Row | Compound | GI50 (TK-10) | GI50 (HL-60) | GI50 (NCI-H522) | GI50 (SF-539) | GI50 (OVCAR-3) | GI50 (A498) | GI50 (NCI-H460) | GI50 (Hs-578T) | GI50 (UACC-62) | GI50 (Malme-3M) | GI50 (SW-620) | GI50 (PC-3) | GI50 (ACHN) | GI50 (MCF7) | GI50 (RPMI-8226) | GI50 (CAKI-1) | GI50 (M14) | GI50 (SK-MEL-2) | GI50 (OVCAR-4)
1 | C=C(c1ccccc1)c1ccccc1-c1cc(-c2ccccc2)cc(-c2ccccc2)n1 | > 100 µM (inactive) | 34.5 µM (inactive) | 28.4 µM (inactive) | > 100 µM (inactive) | 76.6 µM (inactive) | > 100 µM (inactive) | > 100 µM (inactive) | > 100 µM (inactive) | 74.6 µM (inactive) | > 100 µM (inactive) | > 100 µM (inactive) | > 100 µM (inactive) | > 100 µM (inactive) | > 100 µM (inactive) | 58.1 µM (inactive) | > 100 µM (inactive) | > 100 µM (inactive) |  | 
2 | CC1=CC(=O)CC(C)(C)C1/C=C/C(C)=C/C=C/C(C)=C/C=C/C=C(C)/C=C/C=C(C)/C=C/C1C(C)=CC(=O)CC1(C)C (stereo not given) | 77.1 µM (inactive) | 38.5 µM (inactive) | 20.8 µM (inactive) | 45.5 µM (inactive) | 30.5 µM (inactive) | > 100 µM (inactive) | 86.1 µM (inactive) | 30.8 µM (inactive) |  |  | 23.2 µM (inactive) | 41.1 µM (inactive) | 30 µM (inactive) | 29.2 µM (inactive) | 25.2 µM (inactive) | 58.7 µM (inactive) | 40.4 µM (inactive) | > 100 µM (inactive) | 41.1 µM (inactive)
3 | CC(=O)Nc1ccc(/C=C/C(=O)c2sc(-n3nc(-c4ccccc4)cc3-c3ccccc3)nc2C)cc1 | > 10 µM (inactive) | > 10 µM (inactive) | 35.9 µM (inactive) | > 10 µM (inactive) | > 10 µM (inactive) | > 10 µM (inactive) | > 10 µM (inactive) |  | > 10 µM (inactive) | > 10 µM (inactive) | > 10 µM (inactive) |  | > 10 µM (inactive) |  | > 10 µM (inactive) | > 10 µM (inactive) | > 10 µM (inactive) | > 10 µM (inactive) | 78.7 µM (inactive)
4 | O=C1NC(=O)C23C(=O)NC(=O)C12C1C=CC3CC1 (stereo not given) | > 10 µM (inactive) | > 10 µM (inactive) | > 10 µM (inactive) | > 10 µM (inactive) | > 10 µM (inactive) | > 10 µM (inactive) | > 10 µM (inactive) | > 10 µM (inactive) | > 10 µM (inactive) | > 10 µM (inactive) | > 10 µM (inactive) | > 10 µM (inactive) | > 10 µM (inactive) | > 10 µM (inactive) | > 10 µM (inactive) | > 10 µM (inactive) | > 10 µM (inactive) | > 10 µM (inactive) | > 10 µM (inactive)
5 | C=C1CN=C(Nc2ccc(F)cc2F)S1 | > 100 µM (inactive) | 31.5 µM (inactive) |  | > 100 µM (inactive) |  | > 100 µM (inactive) | > 100 µM (inactive) | > 100 µM (inactive) |  | > 100 µM (inactive) | > 100 µM (inactive) | > 100 µM (inactive) | > 100 µM (inactive) | 28 µM (inactive) | 49.7 µM (inactive) | > 100 µM (inactive) |  | > 100 µM (inactive) | > 100 µM (inactive)
6 | OCC1CC2C=CCC(C2)C1 (stereo not given) | > 100 µM (inactive) | > 100 µM (inactive) | > 100 µM (inactive) | > 100 µM (inactive) | > 100 µM (inactive) | > 100 µM (inactive) | > 100 µM (inactive) |  | > 100 µM (inactive) | > 100 µM (inactive) | > 100 µM (inactive) |  | > 100 µM (inactive) |  | > 100 µM (inactive) | > 100 µM (inactive) | > 100 µM (inactive) | > 100 µM (inactive) | > 100 µM (inactive)
7 | CCOC(=O)C1(Br)C(c2ccccc2)NC(=O)N(C2OC(COC(=O)c3ccccc3)C(OC(=O)c3ccccc3)C2OC(=O)c2ccccc2)C1(C)Br (stereo not given) | 39.4 µM (inactive) | 0.0565 µM (active) | 10.2 µM (inactive) | 38.7 µM (inactive) | 29.6 µM (inactive) | 38.9 µM (inactive) | 31 µM (inactive) |  | 10.6 µM (inactive) | 23.8 µM (inactive) | 14.4 µM (inactive) |  | 30.8 µM (inactive) |  | 9.31 µM (inactive) | 35.6 µM (inactive) | 21 µM (inactive) | 31.5 µM (inactive) | 13.9 µM (inactive)
8 | COCCOCc1nc(C#N)c(N)o1 | > 100 µM (inactive) | > 100 µM (inactive) | > 10 µM (inactive) | > 100 µM (inactive) | > 100 µM (inactive) | > 100 µM (inactive) | > 100 µM (inactive) | > 100 µM (inactive) | > 100 µM (inactive) | > 100 µM (inactive) | > 100 µM (inactive) | > 100 µM (inactive) | > 100 µM (inactive) | > 100 µM (inactive) | > 100 µM (inactive) | > 100 µM (inactive) | > 100 µM (inactive) | > 100 µM (inactive) | > 100 µM (inactive)
9 | CCOC(=O)C1C(c2ccc3c(c2)OCO3)c2c(n[nH]c2O)CC1(C)O (stereo not given) | > 100 µM (inactive) | > 100 µM (inactive) | > 100 µM (inactive) | > 100 µM (inactive) | > 100 µM (inactive) | > 100 µM (inactive) | > 100 µM (inactive) | > 100 µM (inactive) | > 100 µM (inactive) | 56.1 µM (inactive) | > 100 µM (inactive) | > 100 µM (inactive) | > 100 µM (inactive) | > 100 µM (inactive) | > 100 µM (inactive) | > 100 µM (inactive) | > 100 µM (inactive) | > 100 µM (inactive) | > 100 µM (inactive)
10 | Cc1cccc(C)c1NC(=O)C(=O)CC(=O)CO | > 100 µM (inactive) | > 100 µM (inactive) | > 100 µM (inactive) | > 100 µM (inactive) | > 100 µM (inactive) | > 100 µM (inactive) | > 100 µM (inactive) |  | > 100 µM (inactive) | > 100 µM (inactive) | > 100 µM (inactive) |  | > 100 µM (inactive) |  | > 100 µM (inactive) | > 100 µM (inactive) | > 100 µM (inactive) | > 100 µM (inactive) | > 100 µM (inactive)
11 | O=C1C(O)=C(Cl)C(=O)c2c(O)ccc(O)c21 | > 100 µM (inactive) | > 100 µM (inactive) |  | > 100 µM (inactive) | > 100 µM (inactive) | > 100 µM (inactive) | > 100 µM (inactive) |  | > 100 µM (inactive) | 20.1 µM (inactive) | > 100 µM (inactive) | > 100 µM (inactive) |  | > 100 µM (inactive) | > 100 µM (inactive) | > 100 µM (inactive) | > 100 µM (inactive) |  | > 100 µM (inactive)
12 | CC(C)OP(=O)(OC(C)C)/C(=N/Nc1ccc([N+](=O)[O-])cc1)NCCN/C(=N\Nc1ccc([N+](=O)[O-])cc1)P(=O)(OC(C)C)OC(C)C | 6.03 µM (inactive) | 3.94 µM (inactive) | 3.22 µM (inactive) | > 100 µM (inactive) | 3.62 µM (inactive) | 3.7 µM (inactive) | 3.71 µM (inactive) |  | 2.15 µM (inactive) | 8.83 µM (inactive) | 3.76 µM (inactive) |  | 3.56 µM (inactive) |  | 3.51 µM (inactive) | 3.58 µM (inactive) | 14.8 µM (inactive) | 4.92 µM (inactive) | 7.19 µM (inactive)
13 | Cc1c(Cl)ccc2c1NC(=O)C2(O)CC(=O)c1ccc(Cl)cc1 (stereo not given) | > 100 µM (inactive) | 28.6 µM (inactive) | > 61.5 µM (inactive) | 65.2 µM (inactive) | 57.3 µM (inactive) | > 43.3 µM (inactive) | 29.6 µM (inactive) |  | 33.5 µM (inactive) | 37.8 µM (inactive) | 29.9 µM (inactive) |  | > 100 µM (inactive) |  | 30.8 µM (inactive) | > 71.9 µM (inactive) | > 100 µM (inactive) | > 46 µM (inactive) | 43.7 µM (inactive)
14 | COCN(C)c1nc(N(C)C)nc(N(C)C)n1 | > 100 µM (inactive) | > 100 µM (inactive) | 9.06 µM (inactive) | > 100 µM (inactive) | > 100 µM (inactive) | > 100 µM (inactive) | > 100 µM (inactive) |  | > 100 µM (inactive) | > 100 µM (inactive) | > 100 µM (inactive) |  | > 100 µM (inactive) |  | > 100 µM (inactive) | > 100 µM (inactive) | > 100 µM (inactive) | > 100 µM (inactive) | > 100 µM (inactive)
15 | C[C@]12CCC[C@H](Cl)C1(O)C[C@H](C(=O)O)CC2 (stereo not given in full) | > 100 µM (inactive) | > 100 µM (inactive) | > 100 µM (inactive) | > 100 µM (inactive) | > 100 µM (inactive) | > 100 µM (inactive) | > 100 µM (inactive) |  | > 100 µM (inactive) | > 100 µM (inactive) | > 100 µM (inactive) |  | > 100 µM (inactive) |  | > 100 µM (inactive) | > 100 µM (inactive) | > 100 µM (inactive) | > 100 µM (inactive) | > 100 µM (inactive)
16 | Nc1ccc(N)c2c1C(=O)c1c(N)ccc(N)c1C2=O | > 59.3 µM (inactive) | 45.6 µM (inactive) | 27.5 µM (inactive) | 31.8 µM (inactive) | 25.1 µM (inactive) | 61 µM (inactive) | > 73.5 µM (inactive) |  | 58.3 µM (inactive) | > 100 µM (inactive) | 52.6 µM (inactive) |  | 27.5 µM (inactive) |  | > 57.3 µM (inactive) | 49.9 µM (inactive) | > 77.3 µM (inactive) | > 84.7 µM (inactive) | 37.1 µM (inactive)
